Experimental data published in US10894069B2, “Topical antiviral formulations and methods of using the same” (priority 2015, dated 2021).

What was measured:
[1] = cited from earlier work
herpes genitalias = assay: Patient case, topical treatment of herpes genitalis; assay type: in vivo, human; conditions: person, high dose
Method: Operating with informed consent, individuals treated with the topical composition and the methods of the present invention for treating herpes virus infection, more particularly Herpes simplex and herpes zoster or shingles, as described in Examples 3 to 8.
A person presented with a decade or longer history of herpes genitalias recurring on the epithelium of the penis, more specifically the shaft. […] The patient was then treated with Composition B of the cannabinoid rich topical of Example 1 one to two times a day.

Herpes simplex = assay: Informal patient trials, topical treatment of Herpes simplex of the lips / herpes labialis; assay type: in vivo, human; conditions: person; for benefit of prior therapy, orally: oral
[2] = cited from earlier work; remark: listed apart in the source

CCCCCc1cc(O)c2c(c1)OC(C)(C)[C@@H]1CCC(C)=C[C@@H]21 [THC, delta-9-tetrahydrocannabinol]
solubility in organic solvents ([1]; specifically lipids and alcohols): good solubility in most organic solvents

CC(C)[C@H](N)C(=O)OCCOCn1cnc2c(=O)[nH]c(N)nc21 [Valtrex, valacyclovir]
response of severe pain with burning and tingling to prior therapy (herpes genitalias): had not responded
satisfaction with prior therapy (Herpes simplex; high doses): without total satisfaction
benefit of prior therapy, orally (Herpes simplex): slight benefit

Nc1nc2c(ncn2COCCO)c(=O)[nH]1 [Zovirax, acyclovir]
benefit of prior therapy, orally (Herpes simplex): slight benefit
benefit of prior therapy, topically (Herpes simplex; topical): without benefit

Nc1nc2c(ncn2COCCO)c(=O)[nH]1 [acyclovir]
solubility in water [1]: poor water-solubility
concentrations in the skin following topical application versus following oral administration [2]: 2-3 times lower
